In patent publication US20250382346A1, “NEURONAL PROMOTERS AND USES THEREOF” (priority 2023, published 2025):

Columns and labels:
rM3Ds = biological target: T1, rM3Ds (Rattus norvegicus, UniProt P08483, A177S/A238G/A489L/DEL261-437/DEL441-478/E258S/I253V/I483M/INS256[…]/K178L/K182A/K255R/K484R/K486H/L173F/L482A/M480V/R171S/R176Q/R179M/S481M/T174R/T181R/T257A/Y148C); test: Chemogenetic manipulation of BG direct pathway in mice with rM3Ds: rotations, nigral c-Fos; format: in vivo; set-up: 2A-EYFP (C); expressed in transfected cells; host or cells: neurons (striatal D1-MSNs) of mice or cynomolgus macaques, transduced in vivo by nigral AAV8R12-G88P7-rM3Ds-2A-EYFP; details: for contraversive rotations (FIG. 7A), mean±SEM: AAV8R12-G88P7-rM3Ds-2A-EYFP nigral, n=8; for rotation behavior (FIG. 7C), mean±SEM: control vector AAV8R12-G88P7-EYFP, n=5, no effect
T1 sequence (P08483 with tags, fused parts or gaps Y148C/R171S/L173F/T174R/R176Q/A177S/K178L/R179M/T181R/K182A/A238G/I253V/K255R/INS256[…]/T257A/E258S/DEL261-437/DEL441-478/M480V/S481M/L482A/I483M/K484R/K486H/A489L): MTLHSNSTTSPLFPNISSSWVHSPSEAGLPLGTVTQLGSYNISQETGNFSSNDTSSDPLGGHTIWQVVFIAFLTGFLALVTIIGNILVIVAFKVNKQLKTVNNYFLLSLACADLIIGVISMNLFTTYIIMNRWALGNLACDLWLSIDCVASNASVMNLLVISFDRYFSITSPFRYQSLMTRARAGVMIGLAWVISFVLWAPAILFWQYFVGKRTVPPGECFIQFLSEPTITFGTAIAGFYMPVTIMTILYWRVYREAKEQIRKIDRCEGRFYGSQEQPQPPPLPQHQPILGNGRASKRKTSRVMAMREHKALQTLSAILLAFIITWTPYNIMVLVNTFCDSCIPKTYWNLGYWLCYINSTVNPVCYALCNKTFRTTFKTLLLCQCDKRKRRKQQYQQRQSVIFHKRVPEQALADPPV
Method: Mice were anesthetized with sodium pentobarbital (Nembutal; 80 mg/kg, i.p.), and then placed into a stereotaxic device (KOPF). Eye cream was applied on both corneas to avoid dehydration. The skull above the targeted areas was thinned with a dental drill and carefully removed. Injections were conducted with a 10 μL syringe connected to a 33-Gauge needle (Neuros; Hamilton), using a microsyringe pump (Legato 130, KD Scientific). A total volume of 200 nL virus was injected into the SNr at a speed of 20 nL/min. The coordinates for the SNr were 3.4 mm posterior, 1.3 mm lateral, 4.8 mm ventral to the bregma.
Mice that were used in the behavioral experiments were then implanted with guide cannulas (KOPF) unilaterally aiming at the dorsomedial striatum (0.5 mm anterior, 1.5 mm lateral, 3.5 mm ventral to the bregma). The cannulas were fixed to the skull with dental cement. Stainless steel obturators were inserted into the guide cannulas and were replaced every other day to maintain the patency until infusions were made. Mice were allowed to recover from the surgery for at least 3 weeks before further studies.
To further optimize the system, an alternative chemogenetic effector that would potentially allow specific manipulation of the direct pathway compatible with systemic CNO infusions needed to be identified. […]. A different chemogenetic effector, rM3Ds, which uses cAMP as the second messenger and can effectively activate striatal MSNs, was used to avoid the activation of SNr neurons upon systemic CNO administration.
Together, these findings confirm that the approach we developed is a durable solution for selective activity modulation of D1-MSNs and the BG direct pathway.
Mice were individually handled for 10-20 seconds per day for at least 5 days to habituate them to the experimenter. The open field test was conducted in a test apparatus (50 cm×50 cm×50 cm) with an HD digital camera (Sony) positioned above the arena. On day one, mice were habituated to the apparatus for 10 minutes. On day 2, mice were administrated saline (0.1 mL i.p. or 200 nL intracranially [i.e.] through the guide cannulas). On day 3, mice were administrated with Clozapine-N-oxide (CNO, Hello Bio, HB1807; 0.3 mg/kg i.p. or 200 nL at 100 μM i.e.). All behavioral tests were conducted 30 minutes after injection. During the test, mice were allowed to freely explore the apparatus for 10 minutes. The behavioral data were analyzed with ANY-maze software (Stoelting Co.).

hM3Dq or rM3Ds = test: Locomotion test in macaques after nigral DREADD AAV and CNO; format: in vivo
Method: To guide the virus injection in SNr, a guide grid of multiple holes spaced by 1 mm was installed on each subject vertically above the SN. By filling vitamin E in these holes, the accurate coordinates for injection could be obtained from the T1-weighted MRI images (3T Tim Trio scanner, Siemens). Virus injections were performed in nine sites covering the whole SNr, and a total volume of 27 μL virus was unilaterally injected in the right SNr at the speed of 300 nL/min.
To intracranially administrate drug and/or perform electrophysiological recording, a recording chamber covering from anterior caudate to posterior GPi was fixed on the skull with 6 titanium screws and dental cement. Each subject was allowed to recover from the surgery for at least 6 weeks prior to further studies.
Locomotion Test: The locomotion tests for monkeys were conducted in a custom-made observation cage (100 cm×100 cm×100 cm). The top and front of the cage were made of toughened glass in order to gain a clear view for behavioral recording. Monkeys were habituated to the observation cage by placing them inside for 30 minutes on three separate days.
For monkeys injected with AAV8R12-G88P3-HA-hM3Dq, CNO was intracranially infused into the dorsomedial caudate through the recording chamber. To infuse while the animal was awake, the monkey was trained to sit in a primate chair specially designed with its head fixed to the primate chair by a mask made of thermoplastic materials. Injections were conducted through a 33-Gauge needle connected to a 250 μL syringe via a polyethylene pipe (Hamilton, Neuros). […] The needle was held for 5 minutes for drug diffusion before retraction. For monkeys injected with AAV8R12-G88P7-rM3Ds-2A-EYFP, CNO was infused via intramuscular injection (10 mg/kg). […] Videos capturing the subjects' behavior were recorded for at least 90 minutes. Animal behaviors from 30-90 minutes after saline/CNO infusion were further analyzed and quantified.
For rotation analysis, only movements that occurred lower than 30 cm on the z-axis were counted. To determine the direction of the rotation, we first computed the center for the rotation data in the x-y plane as (x0, y0) by averaging all data points, and then we computed the angle relative to (x0, y0) for each time point by the following formula:
where θi represents the rotating angle at time i, and (xi, yi) represents the x-y coordinate at time i. We then calculated the change of rotating angle as Δθi=θi−θi−1. For right nigral injections, when Δθ<0, the direction of the rotation was anticlockwise and was labeled as a contraversive rotation. When Δθ>0, the direction of the rotation was clockwise and was labeled as an ipsiversive rotation. The raw data were analyzed and plotted through a custom R package. Code is available on Github (github.com/chenyef/PD_ana/blob/main/Behavior_ana.txt).

## C[N+]1([O-])CCN(C2=Nc3cc(Cl)ccc3Nc3ccccc32)CC1 [CNO, Clozapine-N-oxide]
rM3Ds; CNO i.p., saline 45.95±4.972
  contraversive rotations (FIG. 7A), mean±SEM: 80.05±5.168
rM3Ds; CNO intracranial, saline 58.31±4.742
  contraversive rotations (FIG. 7A), mean±SEM: 80.77±4.187
rM3Ds; AAV8R12-G88P7-rM3Ds-2A-EYFP, intraperitoneal and intracranial CNO
  c-Fos+ cells in the SNr: did not increase the number of c-Fos+ cells in the SNr
rM3Ds; CNO i.p., saline 48.68±7.203
  rotation behavior (FIG. 7C), mean±SEM: 46.88±7.497
rM3Ds; CNO intracranial, saline 41.11±12.73
  rotation behavior (FIG. 7C), mean±SEM: 34.55±7.536
hM3Dq or rM3Ds; following CNO infusions, macaques
  muscle tone, electromyogram recordings: increase in the muscle tone of the contralateral biceps brachii
hM3Dq or rM3Ds; hM3Dq (intracranial CNO) or rM3Ds (systemic CNO) macaques, n=4, saline 1.004±0.2667
  contraversive rotations (FIG. 10C), mean±SEM: 6.649±1.662
hM3Dq or rM3Ds; n=4 macaques, saline 37.43±3.264, not significant
  velocity of ipsiversive rotations (FIG. 10H), mean±SEM: 41.37±6.566
hM3Dq or rM3Ds; n=4 macaques, saline 38.42±5.465
  speed during contraversive rotations (FIG. 10G), mean±SEM: 46.98±6.669
hM3Dq or rM3Ds; n=4 macaques, saline 68.42±10.7
  time in the top portion of the observing cage (FIG. 10D), mean±SEM: 33.74±2.641
hM3Dq or rM3Ds; n=4 macaques, saline 71.53±15.4, not significant
  total distance (FIG. 10F), mean±SEM: 97.37±19.41
hM3Dq or rM3Ds; n=4 macaques, saline 107.1±2.322, not significant
  immobile time (FIG. 10E), mean±SEM: 89.13±8.379
